According to US5321039A, “Method of inducing a histamine agonist action on H2 receptors” (Societe Civile Bioprojet, priority 1990, dated 1994):

Legend:
[1] = system: secretion of gastric acid which is stimulated by histamine; conditions: opposes action of histamine; Ganellin; cited from earlier work
[2] = system: histamine H2 receptor; conditions: Sterk et al.; cited from earlier work
[3] = system: histamine synthesis in the brain of rats; assay: inhibition of histamine synthesis in vivo (brain, peripheral organs)
[4] = target: T1, H3 receptor (Rattus norvegicus, UniProt Q9QYN8); assay: inhibition of liberation and synthesis of endogenous histamine from depolarized brain sections (H3 agonism); format: cell-based; conditions: for potency relative to histamine (times more powerful): H3 agonist
T1 construct: liberation and synthesis of endogenous histamine from depolarized brain sections; from tissue; host or cells: brain sections (slices)

[5] = system: histamine H3 receptor; conditions: EP-A-0 420 396; cited from earlier work

T1 sequence (Q9QYN8 whole entry): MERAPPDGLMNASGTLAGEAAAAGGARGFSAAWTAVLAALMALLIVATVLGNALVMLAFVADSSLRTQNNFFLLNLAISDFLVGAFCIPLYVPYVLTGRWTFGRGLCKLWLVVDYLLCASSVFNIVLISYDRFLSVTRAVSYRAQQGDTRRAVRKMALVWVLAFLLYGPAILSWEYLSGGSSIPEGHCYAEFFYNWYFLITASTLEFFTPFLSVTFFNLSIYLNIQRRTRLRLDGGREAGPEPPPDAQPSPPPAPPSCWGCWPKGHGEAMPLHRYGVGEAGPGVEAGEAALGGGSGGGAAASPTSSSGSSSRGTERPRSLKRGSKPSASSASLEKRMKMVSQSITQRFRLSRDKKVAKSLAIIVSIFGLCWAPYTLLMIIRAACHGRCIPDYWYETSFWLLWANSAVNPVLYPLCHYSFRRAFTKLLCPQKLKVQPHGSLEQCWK

| Structure (SMILES) | 50% inhibiting dose on rat gastric secretion [1] | concentration stimulating the H2 receptor [2] | partial agonist efficacy at histamine H2 receptor [2] [%] | crossing of the blood-brain barrier ([3]; inferred from brain effect at oral 3 mg/kg in rats) | inhibition of histamine synthesis in peripheral organs such as the lungs ([3]; peripheral organs, lungs) | inhibition of histamine synthesis in the brain ([3]; rats, oral dose of 3 mg/kg) | type of agonism on the H3 receptor [4] | potency relative to histamine (times more powerful) [4] | concentration for H3 relative to that necessary for engagement of the H2 receptor (times lower) ([4]; H3 versus H2) | concentration stimulating the H3 receptor ([4]; depolarized brain sections) | H3 agonist potency and selectivity in words [5] | H3 agonist activity in vivo ([3]; in vivo test not specified) | EC50 ([4]; read-out: EC50 as H3 agonist) [nM] |
| --- | --- | --- | --- | --- | --- | --- | --- | --- | --- | --- | --- | --- | --- |
| N=C(N)SCCc1cnc[nH]1 [Compound I, S-[2-(4(5)-imidazolyl)-ethyl] isothiourea] | about 200 μmoles/kg | about 0.1 mM | 50 | adequately crosses the blood-brain barrier | inhibits at a very low dose | maximum inhibition | full histamine agonist | 62 times | about 100,000 times | about 1 nanomolar | highly potent selective histamine H3 -agonists | – | – |
| N=C(N)CCCc1c[nH]cn1 [Compound III, 4-(4(5)-imidazolyl) butyramidine] | – | – | – | – | – | – | – | – | – | – | highly potent selective histamine H3 -agonists | – | – |
| CN=C(N)SCCc1c[nH]cn1 [Compound II] | – | – | – | – | – | – | full and comparatively powerful | about 6 times | – | – | – | active in vivo | 10 |
